Results: US20020037858A1, “Pharmaceutical compositions comprising moexipril magnesium” (priority 2000, published 2002)

Experiment: Stability of moexipril magnesium salt in solid compositions
Format: physicochemical
Settings: solid compositions without an alkaline stabilizing compound in the final composition

In the case of `CCOC(=O)[C@H](CCc1ccccc1)N[C@@H](C)C(=O)N1Cc2cc(OC)c(OC)cc2C[C@H]1C(=O)O.[Mg]` [moexipril magnesium], the “stability of the salt” value is reported as “sufficiently stable to enable stable solid compositions”.
